Measured values reported in US4150231A, “1-Nitro-9-dialkylaminoisoalkylaminoacridines or their salts” (priority 1976, dated 1979).
Entries after “also recorded” stand apart in the source; their conditions may differ.

How the values were obtained:
[1] = test system: Crocker Sarcoma (Sa-180); assay: Inhibition of growth of Crocker Sarcoma (Sa-180) in mice; format: in vivo; settings: 33 determinations in ten series, different doses
Procedure: The inhibition of growth of Crocker Sarcoma (Sa-180) in mice.
For these experiments mice, three months old and about 25 g in weight were used. Each of them was inoculated with a section of sarcoma (Sa-180 and then they were divided in groups: one of control -- 10 mice, and two to four groups of the "being under treatment"-mice (7 mice each).
The compound investigated in corresponding doses were administered intraperitoneally in appropriate doses, prior to which a maximum tolerance dose was determined.
As a criterion for evaluation of the anti-neoplastic activity of the compounds investigated, the percent difference of the mean weights of tumours isolated from control mice, and the "treated" mice was used, taking into consideration the toxic effects. As active compounds were those which have inhibited, by at least 40%, the growth of the tumours, in at least two tests without any dying of the animals (less than 2 mice), or any mean losses of the weight greater than 4 g.
The investigations in vivo of several compounds were carried out several times, e.g., for the preparation labeled code number C-829, that is for 1-nitro-9-(2-dimethylamino-1-methylethylamino)-acridine dihydrochloride. […] In doses of 0.05 to 0.2 mg/kg the percent of inhibition was 17 to 73%, correspondingly.

[2] = test system: liver; parameters: species or system rabbits and rats; settings: in vivo
Procedure: (§1) The extended toxicity studies were carried out for a three-month period in rabbits and rats. Doses of from 1/100 to 1/40 LD50 were administered in the case of rabbits, and of from 1/150 to 1/50 LD50 in the case of rats. It should be noted that the highest doses were also the maximum tolerance doses during 12 weeks.
By prolonged exposition, the influence of the preparation C-829 on the functions of the parenchymateous organs (liver, kidneys) was investigated. […] Only the thymol turbidity test resulted as a positive one, using the highest dosage of the preparation. But it should be kept in mind, that this test is not too exact.

[3] = test system: circulatory system; assay: Circulatory and electrocardiographic effects; format: in vivo
[4] = test system: peripheral blood; assay: Extended toxicity: peripheral blood and clotting; format: in vivo, rabbits and rats
Procedure: as §1

[5] = test system: smooth muscle in the small intestine and the urinary bladder; assay: Action on smooth muscle of small intestine and urinary bladder; format: in vivo; settings: 10 mg/kg, rabbit
[6] = test system: rats; assay: Extended three-month toxicity study in rats; format: in vivo; settings: doses 1/150 to 1/50 LD50
Procedure: as §1

[7] = test system: muscular coat of the small intestine; assay: In vitro action on muscular coat of small intestine, rat; settings: 10^-5 to 5×10^-5, rat
[8] = test system: muscular coat of the small intestine; assay: In vitro action on muscular coat of small intestine, guinea-pig; settings: 10^-5 to 5×10^-5, guinea-pig
[9] = test system: reproductory functions; assay: Influence on reproductory functions; format: in vivo
[10] = Acute toxicity i.v. in mice (LD50, MTD); format: in vivo; settings: mouse, in vivo, iv, on average
[11] = test system: mice; assay: Acute toxicity i.v. in mice (LD50, MTD); format: in vivo
[12] = test system: central nervous system; format: in vivo
Text: The preparation C-829 exerted an effect on the principal functions of the central nervous system.

[13] = test system: respiratory system; assay: Influence on the respiratory system; format: in vivo
Text: The influence exerted by the preparation on the respiratory system is of two-phases.

[14] = test system: kidneys; parameters: species or system rabbits and rats; settings: in vivo
Procedure: as §1

[15] = Acute toxicity, signs and comparison with other acridine derivatives; format: in vivo
Procedure: (§2) On the other hand, similar doses as related to oral administration are about 100 mg/kg.
(§3) The MTD-values by oral administration are even lower i.e., by 53-66% than the sharp lethal dose.

[16] = test system: circulatory system; assay: Circulatory action in atropinized animals; format: in vivo; settings: atropinized rabbits
[17] = test system: rabbits; assay: Extended three-month toxicity study in rabbits; format: in vivo; settings: doses 1/100 to 1/40 LD50
Procedure: as §1

[18] = Acute toxicity i.v. in rats (LD50, MTD); format: in vivo; settings: rat, in vivo, iv, on average
[19] = test system: rats; assay: Acute toxicity i.v. in rats (LD50, MTD); format: in vivo
[20] = test system: lymphatic system; assay: Extended toxicity: lymphatic system; format: in vivo, rabbits and rats; settings: three-month study
Procedure: as §1

[21] = Local irritation by aqueous solution; format: in vivo
[22] = Acute toxicity by oral administration (LD50, MTD); format: in vivo; settings: in vivo, mice and rats
Procedure: as §2, §3

[23] = test system: mice and rats; assay: Acute toxicity by oral administration (LD50, MTD); format: in vivo
Procedure: as §2, §3

For `CC(CN(C)C)Nc1c2ccccc2nc2cccc([N+](=O)[O-])c12.Cl.Cl` (stereo not drawn) [Example C-829, 1-nitro-9-(2-dimethylamino-1-methylethylamino)-acridine dihydrochloride], the “dose dependence of inhibition of Sa-180 growth” value [1] was “dependent upon the dose”, the “liver function (transaminase AlAt, AspAt, acidic and alkaline phosphatase in serum)” value [2] was “It could not be determined, that it could influence the functions of the liver” and the liver histology [2] was “some weak (hardly perceptible) traits of the parenchymatous degeneration of glandular cells”. For the same compound, the thymol turbidity test [2] was “positive”, the “ECG intervals: PQ and QRS sections” value ([3]; higher doses, intravenously) was “prolonging the PQ section and in widening the QRS section” and the “blood pressure and conductivity disturbances” value ([3]; higher doses, intravenously) was “intensified hypotension, induced some disturbances characteristic enough of the acridine compounds both in the atrio-ventricular and intraventricular conductivity”. The electrocardiographic changes ([3]; initially, intravenously, doses increasing to 5 mg/kg) was “initially was not accompanied by any electrocardiographic changes”, the “effect on blood pressure” value ([3]; intravenously, doses increasing to 5 mg/kg, rabbits, cats) was “transient hypotension effect” and the “conductivity disturbance at lethal doses” value ([3]; lethal doses) was “total auriculoventricular dissociation”. For the same compound, the “character of circulatory effect” value ([3]; lower and moderate doses) was “transient character”, the “action on muscular coat of blood-vessels” value ([3]; rabbit, in vivo) was “tonic action on the muscular coat of the blood-vessels” and the “influence on the thrombocyte system” value ([4]; preliminary investigations) was “did not show the influence of the preparation on the thrombocyte system”. The “picture of the peripheral blood (leukocytic, erythrocytic, hemoglobin levels)” value ([4]; three-month study) was “did not change the picture of the peripheral blood”, the “blood clotting (coagulation) time” value ([4]; three-month study, not correlated with dosage) was “prolonged the blood clotting (coagulation) time” and the “action on smooth muscle” value [5] was “spasmolytic”. For the same compound, the “maximum tolerance dose during 12 weeks (highest dose)” value [6] was 1/50, the “action on muscular coat of the small intestine” value [7] was “rather a contracting (enterospasmatic) one” and the “action on muscular coat of the small intestine” value [8] was “rather a contracting (enterospasmatic) one”. For the same compound, the effect on testicles ([9]; 1/50 LD50, 14 days) was “some retrograde microscopical metaplasia within the germinal epithelium of spermatic tubules of the testicles, leading to a disorder in the spermatogenesis”, the “effect on females fructified and newborn animals per brood” value ([9]; 1/50 LD50, 14 days prior to connexion) was “reduced the amount of fructified females, as well as diminished the number of newborn animals in broods” and the effect on ovary ([9]; 14 days) was “no observed pathological alteration in the ovary”. For the same compound, the “development of the foetus and newborn animals” value ([9]; 14 days prior to connexion) was “no macroscopic disorders of development of the foetus and newborn animals”, the LD50 [10] was 21 mg/kg and the “maximum tolerance dose (MTD), lower than LD50 by” value [11] was about 20%. The “interaction with soporific (hypnotic) drugs” value ([12]; 10 LD50 (so in the source)) was “clear depressive component value”, the “action in the presence of cardiazol and strychnine” value ([12]; in vivo) was “complex and non-characteristic” and the “influence on spontaneous motility” value ([12]; in vivo) was “devoid, indeed, of an influence on the spontaneous motility of animals”. The “respiratory effect, initial phase” value ([13]; at the appearance of hypotension) was “instinctive respiratory excitation”, the “respiratory effect, massive doses” value ([13]; massive doses) was “depressive centrally for respiratory action, leading terminally to an apnoea” and the “endogenous creatinine level in the serum” value [14] was “remained unchanged”. The glomerular filterability [14] was “maintained within standard limits”, the kidney histology [14] was “some focal parenchymatous degeneration character in renal tubules” and the “urine: pathological components and specific weight” value [14] was “neither induced any appearance of pathological components in urine, nor changed its specific weight”. The “period over which animals die” value ([15]; in vivo) was “up to 10 days”, the “relative toxicity among the derivatives of acridine” value ([15]; in vivo) was “relatively lower toxicity” and the “toxic signs at death” value ([15]; regardless of the way of administration, dihydrochloride) was “intensified symptoms of the alimentary canal; also recorded: A sharp intestinal obstruction of the paralytic type occurs”. The “change of circulatory action by atropinization” value [16] was “does not change the action of the preparation on the circulatory system”, the “maximum tolerance dose during 12 weeks (highest dose)” value [17] was 1/40 and the LD50 [18] was 13 mg/kg. For the same compound, the “maximum tolerance dose (MTD), lower than LD50 by” value [19] was “about 30%”, the “lymphatic system: proliferous centers and small lymphocytes” value [20] was “The structure of the proliferous centers became imperceptible, and also the amount of small lymphocytes diminished” and the “lymphatic system: rete elements” value [20] was “hypertrophy of rete elements”. The “alterations in the lymphatic system” value ([20]; especially mesenteric lymph nodes) was “very discretely marked involutional alterations”, the “local action of aqueous solution” value ([21]; 0.05-1% aqueous solution) was “locally irritating action” and the “local action at higher concentrations” value ([21]; higher concentrations, aqueous solution) was “narcotizing effect”. For the same compound, the “local irritation with phosphate buffer as solvent” value ([21]; phosphate buffer solution of Sorensen at pH 7) was “partially alleviated”, the LD50 [22] was about 100 mg/kg and the “MTD by oral administration, lower than the sharp lethal dose by” value [23] was 53-66%.
